PMC9676650, “Binding pocket stabilization by high-throughput screening of yeast display libraries” (Frontiers in Molecular Biosciences, 2022)
Positions count from the first letter of the chain named.

Key:
FKBP51 variant D68Y = biological target: T1, FKBP51 variant D68Y (Homo sapiens, UniProt Q13451, D68Y); test: Competitive fluorescence polarization assay, FKBP51 D68Y; settings: 80-100 nM FKBP51 D68Y; 1 nM FK [431]-TA tracer; 30 min room temperature; fitted as KI in competitive binding model; read-out: Kd-value (ligand binding constant, competitive fluorescence polarization)
T1 construct: made in house; host or cells: E. coli BL21 (DE3)
T1 sequence (Q13451 1-140 D68Y): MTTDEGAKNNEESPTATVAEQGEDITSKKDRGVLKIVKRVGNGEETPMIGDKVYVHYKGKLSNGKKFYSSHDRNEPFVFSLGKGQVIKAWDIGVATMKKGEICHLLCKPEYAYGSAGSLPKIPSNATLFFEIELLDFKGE
From the text: (§1) All ligands and tracers used for fluorescence polarization assays had purities of more than 95%. The following ligands and tracers were used for fluorescence polarization and FACS screening experiments: •SAFit-FL tracer (1): Fluorescein conjugated analog of the iFit ligand class. •Mcyc-TA tracer (2): TAMRA conjugated macrocyclic ligand (5). •FK [431]-TA tracer (3): TAMRA conjugated FK [431] ligand (6). •SAFit1 ligand (4): analog of the iFit ligand class. •macrocyclic ligand (5):macrocyclic analog of the SAFit class ligands. •FK [431] ligand (6):bicyclic analog of the immunosuppressive drug FK506
(§2) In order to rule out artifacts introduced by the fluorophore of the tracers, competitive fluorescence polarization assays were carried out. Therefore, a serial dilution of an FK [431] ligand (6), SAFit1 (4), or a macrocyclic ligand 5) (Supplementary Figure S8) in assay buffer was placed in a 384-well assay plate. To the compounds, a mixture of the respective protein (20 nM WT, 10–40 nM G64S or 80–100 nM D68Y) and 1 nM of the FK [431]-TA in assay buffer was added. After incubating for 30 min at room temperature, the fluorescence polarization was measured. […]

FKBP51 WT = biological target: T2, FKBP51 WT (Homo sapiens, UniProt Q13451); test: Competitive fluorescence polarization assay, FKBP51 WT; settings: 20 nM FKBP51 WT; 1 nM FK [431]-TA tracer; 30 min room temperature; fitted as KI in competitive binding model; read-out: Kd-value (ligand binding constant, competitive fluorescence polarization)
T2 construct: made in house; host or cells: E. coli BL21 (DE3)
T2 sequence (Q13451 1-140): T1 sequence (Q13451 1-140 D68Y) with Y68D
From the text: as §1, §2

FKBP51 variant G64S = biological target: T3, FKBP51 variant G64S (Homo sapiens, UniProt Q13451, G64S); test: Competitive fluorescence polarization assay, FKBP51 G64S; settings: 10-40 nM FKBP51 G64S; 1 nM FK [431]-TA tracer; 30 min room temperature; fitted as KI in competitive binding model; read-out: Kd-value (ligand binding constant, competitive fluorescence polarization)
T3 construct: made in house; host or cells: E. coli BL21 (DE3)
T3 sequence (Q13451 1-140 G64S): T1 sequence (Q13451 1-140 D68Y) with G64S, Y68D
From the text: as §1, §2

`COc1ccc(CC[C@@H](OC(=O)[C@@H]2CCCCN2C(=O)[C@H](c2cc(OC)c(OC)c(OC)c2)C2CCCCC2)c2cccc(OCC(=O)O)c2)cc1OC` [SAFit1] gave a Kd (FKBP51 variant D68Y) of 0.2 ± 0.5 nM, a Kd (FKBP51 WT) of 4.8 ± 0.4 nM and a Kd (FKBP51 variant G64S) of 0.5 ± 0.2 nM.
